Literature values as cited in patent US20100184765A1, “Protein Kinase Inhibitors and Methods for Using Thereof” (IRM LLC, priority 2007, published 2010).

Biological target: Flt-1 (Homo sapiens, UniProt P17948)
Details: VEGF binding to Flt-1, literature report

Sequence of Flt-1 (P17948 27-1338, species assumed): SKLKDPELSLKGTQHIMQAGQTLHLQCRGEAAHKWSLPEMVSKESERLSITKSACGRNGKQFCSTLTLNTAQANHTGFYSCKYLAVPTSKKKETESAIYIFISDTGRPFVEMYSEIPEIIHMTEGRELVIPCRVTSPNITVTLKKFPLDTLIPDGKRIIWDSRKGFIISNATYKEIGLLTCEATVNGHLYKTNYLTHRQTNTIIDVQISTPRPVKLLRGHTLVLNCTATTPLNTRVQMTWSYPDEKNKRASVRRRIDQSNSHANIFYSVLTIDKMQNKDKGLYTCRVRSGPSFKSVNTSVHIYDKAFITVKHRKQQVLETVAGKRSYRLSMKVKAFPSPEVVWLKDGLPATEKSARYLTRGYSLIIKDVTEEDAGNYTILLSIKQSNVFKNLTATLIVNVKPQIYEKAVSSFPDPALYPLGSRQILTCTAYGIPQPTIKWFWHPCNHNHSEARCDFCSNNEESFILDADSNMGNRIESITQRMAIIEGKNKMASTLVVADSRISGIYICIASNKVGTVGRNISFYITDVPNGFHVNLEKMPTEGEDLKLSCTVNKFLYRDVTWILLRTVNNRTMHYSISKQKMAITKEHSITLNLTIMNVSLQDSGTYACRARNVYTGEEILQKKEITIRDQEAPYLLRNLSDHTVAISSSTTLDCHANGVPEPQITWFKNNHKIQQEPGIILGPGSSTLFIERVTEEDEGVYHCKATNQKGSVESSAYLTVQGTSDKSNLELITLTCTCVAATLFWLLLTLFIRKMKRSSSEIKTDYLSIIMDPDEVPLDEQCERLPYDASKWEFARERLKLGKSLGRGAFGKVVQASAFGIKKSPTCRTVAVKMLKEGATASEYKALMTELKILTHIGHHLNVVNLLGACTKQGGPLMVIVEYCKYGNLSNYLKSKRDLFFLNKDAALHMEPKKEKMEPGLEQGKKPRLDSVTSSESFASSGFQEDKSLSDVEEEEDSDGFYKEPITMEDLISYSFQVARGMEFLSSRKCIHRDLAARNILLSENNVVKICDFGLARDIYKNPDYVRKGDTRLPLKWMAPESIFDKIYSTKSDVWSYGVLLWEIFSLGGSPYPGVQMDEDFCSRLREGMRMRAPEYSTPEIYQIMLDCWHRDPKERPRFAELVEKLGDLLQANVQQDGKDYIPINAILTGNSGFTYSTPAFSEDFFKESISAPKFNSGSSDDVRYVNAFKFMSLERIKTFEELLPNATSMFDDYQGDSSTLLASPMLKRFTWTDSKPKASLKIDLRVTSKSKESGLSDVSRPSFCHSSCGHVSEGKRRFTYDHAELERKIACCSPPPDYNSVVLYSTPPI

Substance: VEGF
- Kd: 0.02 nM
